What was measured:
HepG2 cells [1] = assay: Annexin V/PI flow cytometry of apoptosis, HepG2; format: cell-based, human; conditions: for surviving tumor cells (Annexin V/PI double negative): 24 hours
Description: FIG. 19 is a series of histograms representing flow cytometry analysis of TRAIL-mediated apoptosis of HepG2 cells as an analysis of in vitro TTPN-mediated apoptosis on TRAIL-sensitive-HepG2 cells. Cells were incubated for 24 hours in the presence of different concentrations of mTRAIL and TTPN and analyzed by Annexin V/PI double staining.
In addition, to investigate whether apoptosis induced by TTPN is induced by the pro-apoptosis pathway of tumor cells, fluorescence-activated cell sorting (FACS) using double staining of Annexin V/propidium iodide (PI) was performed. […] (FIG. 21).

XIAP = assay: Western blot of HT29 lysates: XIAP; format: cell-based, human; conditions: HT29, 24 hours
Description: (§1) After incubating HT29 cells with 50 nM DOX-TTPNs, DOX-FTNs, free DOX, or buffer for 24 hours, cells were lysed with radioimmunoprecipitation assay (RIPA) buffer (Cell Signaling Technology) and the concentration of proteins was measured using a DC protein assay kit (Bio-Rad). Equal amounts of proteins (30 μg) were resolved by SDS-PAGE and transferred to nitrocellulose membranes. After blocking with 5% skim milk in Tris-buffered saline containing 0.1% Tween-20 (TBST), membranes were incubated first with anti-Cl-PARP, anti-Cl-caspase-6, anti-cFLIP, anti-Bcl-xL, anti-XIAP, anti-Cl-caspase-3, or anti-GAPDH primary antibody (Cell Signaling Technology), and then with anti-mouse or anti-rabbit secondary antibodies (Sigma-Aldrich), as appropriate. Immunoreactive proteins were visualized using enhanced chemiluminescence (ECL) chemical reagents (Bio-Rad) and ChemiDoc (Bio-Rad), and were analyzed using ImageJ software.

PARP = assay: Western blot of HT29 lysates: PARP; format: cell-based, human; conditions: HT29, 24 hours
Description: as §1

[2] = In vitro stability (soluble protein in buffer over time); format: physicochemical
Description: The stability of TTPN, DOX-TTPN and mTRAIL was investigated by measuring changes of concentration in a suitable buffer solution. […] At predetermined times, aggregated proteins were collected at 13,000 rpm for 10 minutes, and the concentration of soluble DOX-TTPN and TTPN in the supernatant was measured using absorbance in UV280.

[3] = Dynamic light scattering (DLS) size; format: physicochemical
HepG2 tumor = assay: Antitumor efficacy, HepG2 xenograft; format: in vivo, mouse
Description: In the evaluation of the anti-tumor effect of the present invention, BALB/c nude male mice (6-7 weeks old) were used as an animal model. Particularly, HT29 cells (5×10^6) and HepG2 cells (5×10^6) were subcutaneously inoculated into the left dorsal flank of BALB/c nude mice, respectively. After a volume of tumors reached ˜80-100 mm^3, mice were randomly divided into the 14 following five treatment groups (6 mice/group); DOX-TTPNs, DOX-FTNs, free DOX, empty TTPNs, and buffer. Mice were intravenously injected five times, once every 2 days, and volume of tumors was determined as 1/2(Length×Width^2). Apoptotic cell death in tumor tissues was analyzed using TUNEL staining (In situ Cell Death Detection kit; Roche), and cells were stained with DAPI (4′,6-diamidino-2-phenylindole), as previously described (Kih et al., Biomaterials 180: 67-77, 2018). Apoptotic cells were visualized under a Nikon Eclipse Ti microscope (Nikon) and quantified as the number of TUNEL-positive cells per total number of cells using ImageJ software. After 21 days from injecting tumor cells, tumor tissues were excised from the experimental mice, and cryo-sections (3.5 μm) were fixed with 10% neutral buffered formalin and paraffin-embedded tissue blocks.
In addition, to investigate whether tumor growth inhibition by TTPN is induced by apoptosis-inducing activity on tumor cells, tumor tissues from the treated mice were analyzed. On the 15th day after the first injection, mice were euthanized, and apoptosis of tumor tissues was analyzed using terminal deoxynucleotidyl transferase dUTP nick end labeling (TUNEL) staining.

[4] = Transmission electron microscopy (TEM) size; format: physicochemical
Description: TEM analyses of TTPN and wtFTN were imaged by bio transmission electron microscopy (Hitachi). […] The hydrodynamic sizes of TTPN-DOX and TTPN were analyzed by dynamic light scattering (DLS) using a Zetasizer Nano ZS system (Malvern Instruments, Ltd., UK), as previously described (Zidi et al., Med. Oncol. 2010, 27(2): 185-198, 2010).

[5] = test system: cleaved form of caspase-3; assay: Western blot of HT29 lysates: cleaved caspase-3; format: cell-based, human; conditions: HT29, 50 nM, 24 hours
Description: as §1

HepG2 cells [6] = assay: Cell viability, CCK-8 assay, HepG2; format: cell-based, human; conditions: TRAIL-sensitive HepG2 cells, 24 hours (FIG. 17)
Description: After culturing for 24 hours, cell viability was measured using a cell counting kit (CCK)-8 assay (Dojindo Molecular Technologies, Gaithersburg, Md.). The plate was then read with an absorbance microplate reader (Spectramax 340, Molecular Devices Corporation) at a wavelength of 450 nm and 50% effective by regression analysis using SigmaPlot software (Systat Software, Inc., San Jose, Calif.). The concentration value was calculated.

DR4 = target: T1, DR4 (Homo sapiens, UniProt O00220); assay: SPR binding to immobilized DR4-Fc
T1 construct: purchased R&D systems 347-DR-100
Description: Binding experiments of TTPN and mTRAIL to TRAIL receptors DR4 and DR5 were analyzed at 25° C. using a surface plasmon resonance apparatus (SR7500 DC, Reichert Inc., NY, USA). DR4 and DR5-fc chimeric proteins (R&D systems 347-DR-100, 631-T2-100) were immobilized on the surface of the Planar Protein A sensor chip (Reichert, 13206069) and the receptors were coated at a level of 300 to 500 resonance units. SPR kinetic titrations were performed by adding 250 μl of TTPN and mTRAIL with different concentrations in the range of 1.56 to 400 nM and 0.1 to 25.6 μM, respectively, increasing by four times. Each analyte was run at 50 μL/min using running and sample buffer (0.5 M Tris-HCl (pH 7.4), 150 mM NaCl, 0.005% Tween 20), and binding of the ligand to the receptor was performed and monitored in real time. For titration sensorgrams, a simple 1:1 Langmuir interaction model (A+B↔AB) was applied using the data analysis program Scrubber 2.0 (BioLogic Software, Australia, and KaleidaGraph Software, Australia) and CLAMP software.
The affinity KD was determined from the formula of KD=kd/ka. Results are based on representative sensorgrams obtained from saturation binding reactions averaged over at least three independent runs of SPR measurements (FIG. 31).

T1 sequence (O00220 with tags, fused parts or gaps limits assumed): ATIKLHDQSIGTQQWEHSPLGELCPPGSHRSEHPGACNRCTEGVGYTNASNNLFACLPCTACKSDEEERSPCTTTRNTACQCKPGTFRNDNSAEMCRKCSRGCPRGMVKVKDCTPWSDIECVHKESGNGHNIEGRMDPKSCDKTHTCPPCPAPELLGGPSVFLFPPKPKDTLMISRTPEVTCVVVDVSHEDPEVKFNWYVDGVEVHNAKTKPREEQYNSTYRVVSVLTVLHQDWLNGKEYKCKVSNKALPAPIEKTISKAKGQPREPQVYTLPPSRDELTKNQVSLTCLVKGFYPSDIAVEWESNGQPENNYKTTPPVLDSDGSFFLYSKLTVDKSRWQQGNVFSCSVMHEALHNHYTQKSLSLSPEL

## TTPN: protein nanocage presenting TRAIL as natural-like homo-trimers; TRAIL 95-281 fused by linker peptide to human ferritin heavy chain
HepG2 cells [1]; HepG2, 0.4 nM
  surviving tumor cells (Annexin V/PI double negative): 83.5%
HepG2 cells [1]; HepG2, 100 nM
  surviving tumor cells (Annexin V/PI double negative): 12.0%
HepG2 cells [1]; HepG2, 24 hours (FIG. 20)
  concentration at which Annexin V-positive cells were detected: 0.4 nM
XIAP
  decrease in XIAP levels compared with buffer treatment: no significant effect
PARP
  increase in PARP relative to buffer-treated controls (defined as 1): 457 fold
[2]; 15 mg/mL in PBS buffer for 24 hours (FIG. 15)
  stability in solution: remarkably improved stability
[2]; after 1 month, 10 mg/mL (FIG. 16)
  amount maintained in the soluble form: more than 90%
[3]
  average size (DLS): 25.85 nm
HepG2 tumor
  tumor volume inhibition relative to mTRAIL: 3.1 times
HepG2 tumor; i.v. every 2 days, TTPN 23 mg/kg, mTRAIL 12 mg/kg
  inhibition of tumor volume: 80.52%
[4]
  average size (TEM): 24-28 nm
[5]
  cleaved caspase-3 (and PARP) expression: little change
HepG2 cells [6]
  apoptosis: concentration-dependent apoptosis
DR4; DR4-Fc immobilized, 25° C.
  ka: 3.23 (±0.26) · 10^4 M^−1 · S^−1
  kd: 2.42 (±0.48) · 10^−5 s^−1
DR4; for DR4 and DR5
  increased affinity compared with monomeric TRAIL: up to 330 fold

Reference: US20210054047A1, “NOVEL ANTICANCER FUSION PROTEIN AND USE THEREOF” (KOREA INSTITUTE OF SCIENCE AND TECHNOLOGY, priority 2018, published 2021)
